Several values for one entry are separate records, joined by “and”; a condition that tells them apart may be missing. Equal entries are not always repeated. ± gives the expanded uncertainty stated by the source.
Legend:
[1] = mn = molality of the nth substance listed, in mol/kg; details: 101.33 kPa, Liquid, m1 = 0.05
[2] = cn = amount concentration of the nth substance listed, in mol/dm3; details: 101.33 kPa, Liquid, Alternating current cell with electrodes

Q: Which results are given for `CCCCCCCCCCCCOS(=O)(=O)[O-].[Na+]` [sodium dodecyl sulfate] + O?
A: mass density ([1]; 298.15 K): 999.198 ± 0.14 kg/m3 and 999.155 ± 0.23 kg/m3; mass density ([1]; 303.15 K): 997.657 ± 0.14 kg/m3 and 997.661 ± 0.23 kg/m3; mass density ([1]; 308.15 K): 995.989 ± 0.14 kg/m3 and 995.962 ± 0.24 kg/m3; mass density ([1]; 313.15 K): 994.178 ± 0.14 kg/m3 and 994.186 ± 0.24 kg/m3; electrical conductivity ([2]; 288.15 K, c1 = 0.003022): 0.0165 ± 0.00027 S/m; electrical conductivity ([2]; 288.15 K, c1 = 0.004552): 0.0247 ± 0.00033 S/m; electrical conductivity ([2]; 288.15 K, c1 = 0.005661): 0.0304 ± 0.00037 S/m; electrical conductivity ([2]; 288.15 K, c1 = 0.006744): 0.0361 ± 0.00042 S/m; electrical conductivity ([2]; 288.15 K, c1 = 0.007679): 0.0408 ± 0.00044 S/m; electrical conductivity ([2]; 288.15 K, c1 = 0.008765): 0.0447 ± 0.00047 S/m; electrical conductivity ([2]; 288.15 K, c1 = 0.009933): 0.0474 ± 0.00048 S/m; electrical conductivity ([2]; 288.15 K, c1 = 0.0111): 0.0497 ± 0.00051 S/m; electrical conductivity ([2]; 288.15 K, c1 = 0.01221): 0.0518 ± 0.00053 S/m; electrical conductivity ([2]; 288.15 K, c1 = 0.01335): 0.0538 ± 0.00055 S/m; electrical conductivity ([2]; 288.15 K, c1 = 0.01444): 0.0558 ± 0.00057 S/m; electrical conductivity ([2]; 288.15 K, c1 = 0.0156): 0.058 ± 0.00059 S/m; electrical conductivity ([2]; 288.15 K, c1 = 0.01674): 0.0601 ± 0.00061 S/m; electrical conductivity ([2]; 293.15 K, c1 = 0.003022): 0.0184 ± 0.00031 S/m; electrical conductivity ([2]; 293.15 K, c1 = 0.004552): 0.0279 ± 0.00037 S/m; electrical conductivity ([2]; 293.15 K, c1 = 0.005661): 0.0344 ± 0.00042 S/m; electrical conductivity ([2]; 293.15 K, c1 = 0.006744): 0.0408 ± 0.00047 S/m; electrical conductivity ([2]; 293.15 K, c1 = 0.007679): 0.0461 ± 0.0005 S/m; electrical conductivity ([2]; 293.15 K, c1 = 0.008765): 0.0502 ± 0.00052 S/m; electrical conductivity ([2]; 293.15 K, c1 = 0.009933): 0.0532 ± 0.00054 S/m; electrical conductivity ([2]; 293.15 K, c1 = 0.0111): 0.0559 ± 0.00057 S/m; electrical conductivity ([2]; 293.15 K, c1 = 0.01221): 0.0584 ± 0.00059 S/m; electrical conductivity ([2]; 293.15 K, c1 = 0.01335): 0.0609 ± 0.00062 S/m; electrical conductivity ([2]; 293.15 K, c1 = 0.01444): 0.0632 ± 0.00064 S/m; electrical conductivity ([2]; 293.15 K, c1 = 0.0156): 0.0657 ± 0.00067 S/m; electrical conductivity ([2]; 293.15 K, c1 = 0.01674): 0.0683 ± 0.00069 S/m; electrical conductivity ([2]; 298.15 K, c1 = 0.003022): 0.0207 ± 0.00034 S/m; electrical conductivity ([2]; 298.15 K, c1 = 0.004552): 0.0313 ± 0.00042 S/m; electrical conductivity ([2]; 298.15 K, c1 = 0.005661): 0.0388 ± 0.00047 S/m; electrical conductivity ([2]; 298.15 K, c1 = 0.006744): 0.0458 ± 0.00053 S/m; electrical conductivity ([2]; 298.15 K, c1 = 0.007679): 0.0517 ± 0.00056 S/m; electrical conductivity ([2]; 298.15 K, c1 = 0.008765): 0.0565 ± 0.00059 S/m; electrical conductivity ([2]; 298.15 K, c1 = 0.009933): 0.06 ± 0.00061 S/m; electrical conductivity ([2]; 298.15 K, c1 = 0.0111): 0.0632 ± 0.00064 S/m; electrical conductivity ([2]; 298.15 K, c1 = 0.01221): 0.0661 ± 0.00067 S/m; electrical conductivity ([2]; 298.15 K, c1 = 0.01335): 0.0688 ± 0.0007 S/m; electrical conductivity ([2]; 298.15 K, c1 = 0.01444): 0.0715 ± 0.00072 S/m; electrical conductivity ([2]; 298.15 K, c1 = 0.0156): 0.0745 ± 0.00076 S/m; electrical conductivity ([2]; 298.15 K, c1 = 0.01674): 0.0775 ± 0.00079 S/m; electrical conductivity ([2]; 303.15 K, c1 = 0.003022): 0.0234 ± 0.00038 S/m; electrical conductivity ([2]; 303.15 K, c1 = 0.004552): 0.0349 ± 0.00046 S/m; electrical conductivity ([2]; 303.15 K, c1 = 0.005661): 0.0431 ± 0.00052 S/m; electrical conductivity ([2]; 303.15 K, c1 = 0.006744): 0.051 ± 0.00059 S/m; electrical conductivity ([2]; 303.15 K, c1 = 0.007679): 0.0577 ± 0.00063 S/m; electrical conductivity ([2]; 303.15 K, c1 = 0.008765): 0.0632 ± 0.00065 S/m; electrical conductivity ([2]; 303.15 K, c1 = 0.009933): 0.0671 ± 0.00069 S/m; electrical conductivity ([2]; 303.15 K, c1 = 0.0111): 0.0708 ± 0.00072 S/m; electrical conductivity ([2]; 303.15 K, c1 = 0.01221): 0.074 ± 0.00075 S/m; electrical conductivity ([2]; 303.15 K, c1 = 0.01335): 0.0774 ± 0.00079 S/m; electrical conductivity ([2]; 303.15 K, c1 = 0.01444): 0.0805 ± 0.00082 S/m; electrical conductivity ([2]; 303.15 K, c1 = 0.0156): 0.084 ± 0.00085 S/m; electrical conductivity ([2]; 303.15 K, c1 = 0.01674): 0.0873 ± 0.00089 S/m; electrical conductivity ([2]; 308.15 K, c1 = 0.003022): 0.0258 ± 0.00042 S/m; electrical conductivity ([2]; 308.15 K, c1 = 0.004552): 0.0386 ± 0.00051 S/m; electrical conductivity ([2]; 308.15 K, c1 = 0.005661): 0.0477 ± 0.00058 S/m; electrical conductivity ([2]; 308.15 K, c1 = 0.006744): 0.0564 ± 0.00065 S/m; electrical conductivity ([2]; 308.15 K, c1 = 0.007679): 0.0638 ± 0.0007 S/m; electrical conductivity ([2]; 308.15 K, c1 = 0.008765): 0.0704 ± 0.00073 S/m; electrical conductivity ([2]; 308.15 K, c1 = 0.009933): 0.0751 ± 0.00077 S/m; electrical conductivity ([2]; 308.15 K, c1 = 0.0111): 0.0793 ± 0.00081 S/m; electrical conductivity ([2]; 308.15 K, c1 = 0.01221): 0.083 ± 0.00084 S/m; electrical conductivity ([2]; 308.15 K, c1 = 0.01335): 0.0869 ± 0.00088 S/m; electrical conductivity ([2]; 308.15 K, c1 = 0.01444): 0.0904 ± 0.00092 S/m; electrical conductivity ([2]; 308.15 K, c1 = 0.0156): 0.0944 ± 0.00096 S/m; electrical conductivity ([2]; 308.15 K, c1 = 0.01674): 0.098 ± 0.00099 S/m

Source: the NIST ThermoML archive (doi:10.1021/je100068y)
